In patent publication US9274101B2 (BIOLOG, Inc., priority 2001, dated 2016):
Entries after “also recorded” stand apart in the source; their conditions may differ.

Assays:
[1] = test system: Undifferentiated HL-60 cells; experiment: Energy use by undifferentiated HL-60 cells; assay type: cell-based, human; conditions: for activity at 30 µM / activity at 100 µM / activity at 330 µM / activity at 1000 µM / activity at 3300 µM / activity at 10000 µM / activity at 15000 µM / activity at 20000 µM: Homo sapiens, HL-60, 24 h, read-out: Energy Use by Undifferentiated HL-60 Cells
HL-60 cells [2] = experiment: Effect of 10 mM citric acid on HL-60 energy utilization; assay type: cell-based, human; conditions: for Effect of 10 mM Citric Acid on HL-60 Energy Utilization: negative control without energy sources and without citric acid
ten strains of E. coli = assay type: cell-based, Escherichia coli; also: key: +: indicates that the organism tested was capable of utilizing the carbon source listed; −: indicates that the organism tested was not capable of utilizing the carbon source listed; indicates weak positive reactions
HL-60 cells [3] = experiment: Effect of 1 mM chloramphenicol on HL-60 energy utilization; assay type: cell-based, human; conditions: negative control without chloramphenicol
In short: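 Washed HL-60 cells (5×10^4/well) in DME-R with chloramphenicol (1 mM final) were exposed to test energy sources at 0.033 to 20 mM final for 24 h at 37° C, 5% CO2. MTS/MPMS reagent was then added and read 24 h later at 490 nm (650 nm reference). Cell-free plate OD was subtracted, and values were given as % of the negative control without chloramphenicol.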

HL-60 cells [4] = experiment: HL-60 responses to selected compounds at a range of concentrations; assay type: cell-based, human; conditions: for activity at 30 µM / activity at 100 µM / activity at 330 µM / activity at 1000 µM / activity at 3300 µM / activity at 10000 µM / activity at 15000 µM / activity at 20000 µM: Homo sapiens, HL-60, read-out: HL-60 Cell Responses to Selected Compounds from PM1 and PM2
In short: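 Washed HL-60 cells (5×10^4/well) in DME-R were exposed to test energy sources at final 0.033 to 20 mM for 24 h at 37 °C, then MTS/MPMS was added for a further 24 h. OD490 (ref 650 nm) was corrected with cell-free control plates and normalized to % of no-energy-source control.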

[5] = energy source 0.03 mM with 10 mM citric acid
[6] = energy source 0.10 mM with 10 mM citric acid
[7] = energy source 0.33 mM with 10 mM citric acid
[8] = energy source 1.00 mM with 10 mM citric acid
[9] = energy source 3.3 mM with 10 mM citric acid
[10] = energy source 10 mM with 10 mM citric acid
[11] = energy source 15 mM with 10 mM citric acid
[12] = energy source 20 mM with 10 mM citric acid
[13] = energy source 0.03 mM with 1 mM chloramphenicol
[14] = energy source 0.10 mM with 1 mM chloramphenicol
[15] = energy source 0.33 mM with 1 mM chloramphenicol
[16] = energy source 1.00 mM with 1 mM chloramphenicol
[17] = energy source 3.3 mM with 1 mM chloramphenicol
[18] = energy source 10 mM with 1 mM chloramphenicol
[19] = energy source 15 mM with 1 mM chloramphenicol
[20] = energy source 20 mM with 1 mM chloramphenicol

SMILES	activity at 30 µM ([1]; Conc. 0.03 mM)	activity at 100 µM ([1]; Conc. 0.10 mM)	activity at 330 µM ([1]; Conc. 0.33 mM)	activity at 1000 µM ([1]; Conc. 1.00 mM)	Effect of 10 mM Citric Acid on HL-60 Energy Utilization (HL-60 cells [2]; [5])	Effect of 10 mM Citric Acid on HL-60 Energy Utilization (HL-60 cells [2]; [6])	Effect of 10 mM Citric Acid on HL-60 Energy Utilization (HL-60 cells [2]; [7])	Effect of 10 mM Citric Acid on HL-60 Energy Utilization (HL-60 cells [2]; [8])	Effect of 10 mM Citric Acid on HL-60 Energy Utilization (HL-60 cells [2]; [9])	Effect of 10 mM Citric Acid on HL-60 Energy Utilization (HL-60 cells [2]; [10])	Effect of 10 mM Citric Acid on HL-60 Energy Utilization (HL-60 cells [2]; [11])	Effect of 10 mM Citric Acid on HL-60 Energy Utilization (HL-60 cells [2]; [12])	Effect of 1 mM chloramphenicol on HL-60 Energy Utilization (HL-60 cells [3]; [13])	Effect of 1 mM chloramphenicol on HL-60 Energy Utilization (HL-60 cells [3]; [14])	Effect of 1 mM chloramphenicol on HL-60 Energy Utilization (HL-60 cells [3]; [15])	Effect of 1 mM chloramphenicol on HL-60 Energy Utilization (HL-60 cells [3]; [16])	Effect of 1 mM chloramphenicol on HL-60 Energy Utilization (HL-60 cells [3]; [17])	Effect of 1 mM chloramphenicol on HL-60 Energy Utilization (HL-60 cells [3]; [18])	Effect of 1 mM chloramphenicol on HL-60 Energy Utilization (HL-60 cells [3]; [19])	Effect of 1 mM chloramphenicol on HL-60 Energy Utilization (HL-60 cells [3]; [20])	also measured
O=C[C@H](O)[C@@H](O)[C@@H](O)[C@H](O)C(=O)O [D-galacturonic acid]	116%	116%	116%	141%	1.4 % of negative control	12.8 % of negative control	43.5 % of negative control	61.8 % of negative control	141.6 % of negative control	177.0 % of negative control	136.3 % of negative control	110.8 % of negative control	0.2 % of negative control	−2.7 % of negative control	−4.6 % of negative control	−4.6 % of negative control	7.9 % of negative control	8.4 % of negative control	5.0 % of negative control	−12.8 % of negative control	activity at 3300 µM ([1]; Conc. 3.3 mM): 144%; activity at 10000 µM ([1]; Conc. 10 mM): 134%; activity at 15000 µM ([1]; Conc. 15 mM): 162%; activity at 20000 µM ([1]; Conc. 20 mM): 113%; cell activity in the presence of citric acid, in words (HL-60 cells [2]; 10 mM citric acid): acitivity; also recorded: capable of overcoming the antiproliferative effects of citric acid; carbon source utilization (ten strains of E. coli): +; activity at 30 µM (HL-60 cells [4]; Conc. 0.03 mM): 124%; activity at 100 µM (HL-60 cells [4]; Conc. 0.10 mM): 125%; activity at 330 µM (HL-60 cells [4]; Conc. 0.33 mM): 126%; activity at 1000 µM (HL-60 cells [4]; Conc. 1.00 mM): 138%; activity at 3300 µM (HL-60 cells [4]; Conc. 3.3 mM): 140%; activity at 10000 µM (HL-60 cells [4]; Conc. 10 mM): 122%; activity at 15000 µM (HL-60 cells [4]; Conc. 15 mM): 101%; activity at 20000 µM (HL-60 cells [4]; Conc. 20 mM): 25%
COC(=O)CCC(=O)O [mono methyl succinate]	104%	99.9%	112%	141%	4.9 % of negative control	13.0 % of negative control	16.9 % of negative control	51.7 % of negative control	163.6 % of negative control	210.0 % of negative control	192.3 % of negative control	173.9 % of negative control	10.4 % of negative control	−2.1 % of negative control	2.6 % of negative control	1.8 % of negative control	43.3 % of negative control	78.1 % of negative control	47.8 % of negative control	16.2 % of negative control	activity at 3300 µM ([1]; Conc. 3.3 mM): 182%; activity at 10000 µM ([1]; Conc. 10 mM): 223%; activity at 15000 µM ([1]; Conc. 15 mM): 261%; activity at 20000 µM ([1]; Conc. 20 mM): 199%; activity at 30 µM (HL-60 cells [4]; Conc. 0.03 mM): 118%; activity at 100 µM (HL-60 cells [4]; Conc. 0.10 mM): 130%; activity at 330 µM (HL-60 cells [4]; Conc. 0.33 mM): 133%; activity at 1000 µM (HL-60 cells [4]; Conc. 1.00 mM): 142%; activity at 3300 µM (HL-60 cells [4]; Conc. 3.3 mM): 167%; activity at 10000 µM (HL-60 cells [4]; Conc. 10 mM): 173%; activity at 15000 µM (HL-60 cells [4]; Conc. 15 mM): 139%; activity at 20000 µM (HL-60 cells [4]; Conc. 20 mM): 93.3%
O=C(O)[C@@H]1C[C@@H](O)CN1 [hydroxy L-proline]					7.6 % of negative control	17.7 % of negative control	25.0 % of negative control	37.5 % of negative control	49.0 % of negative control	85.0 % of negative control	87.4 % of negative control	68.8 % of negative control	1.2 % of negative control	−5.0 % of negative control	2.6 % of negative control	−1.2 % of negative control	4.4 % of negative control	1.7 % of negative control	15.7 % of negative control	0.6 % of negative control	Energy Use by Undifferentiated HL-60 Cells ([1]; Conc. 0.03 mM): 109.9 % of negative control; Energy Use by Undifferentiated HL-60 Cells ([1]; Conc. 0.10 mM): 112.9 % of negative control; Energy Use by Undifferentiated HL-60 Cells ([1]; Conc. 0.33 mM): 99.6 % of negative control; Energy Use by Undifferentiated HL-60 Cells ([1]; Conc. 1.00 mM): 104.7 % of negative control; Energy Use by Undifferentiated HL-60 Cells ([1]; Conc. 3.3 mM): 114.7 % of negative control; Energy Use by Undifferentiated HL-60 Cells ([1]; Conc. 10 mM): 117.8 % of negative control; Energy Use by Undifferentiated HL-60 Cells ([1]; Conc. 15 mM): 124.2 % of negative control; Energy Use by Undifferentiated HL-60 Cells ([1]; Conc. 20 mM): 101.8 % of negative control; response greater than the negative control (HL-60 cells [4]; 0.033 to 20 mM, 24 h culture + 24 h color development): < 30%; HL-60 Cell Responses to Selected Compounds from PM1 and PM2 (HL-60 cells [4]; Conc. 0.03 mM): 125.0 % of negative control; HL-60 Cell Responses to Selected Compounds from PM1 and PM2 (HL-60 cells [4]; Conc. 0.10 mM): 122.8 % of negative control; HL-60 Cell Responses to Selected Compounds from PM1 and PM2 (HL-60 cells [4]; Conc. 0.33 mM): 121.5 % of negative control; HL-60 Cell Responses to Selected Compounds from PM1 and PM2 (HL-60 cells [4]; Conc. 1.00 mM): 128.4 % of negative control; HL-60 Cell Responses to Selected Compounds from PM1 and PM2 (HL-60 cells [4]; Conc. 3.3 mM): 129.6 % of negative control; HL-60 Cell Responses to Selected Compounds from PM1 and PM2 (HL-60 cells [4]; Conc. 10 mM): 121.5 % of negative control; HL-60 Cell Responses to Selected Compounds from PM1 and PM2 (HL-60 cells [4]; Conc. 15 mM): 111.8 % of negative control; HL-60 Cell Responses to Selected Compounds from PM1 and PM2 (HL-60 cells [4]; Conc. 20 mM): 99.2 % of negative control
